Legend:
hLOX-1 = target: T1, hLOX-1 (Homo sapiens, UniProt P78380); test: Fluorescently labeled oxidized LDL uptake into CHO cells expressing hLOX-1, tetracycline induction (Example 6); format: cell-based; settings: FIG. 5; control = 100%; compared with anti-hLOX antibody
T1 construct: expressed in transfected cells; host or cells: CHO-K1 Tet-On cell line (Clontech), pTRE-hLOX1 (B), doxycycline induction
Procedure: As for the same compounds as in Example 5, using Chinese hamster ovary (CHO) cells stably expressing bLOX-1, an ability to suppress fluorescently labeled oxidized LDL uptake into the CHO cells through the bLOX-1 was evaluated. Furthermore, as for the hLOX-1, in the CHO cells using an induction system of tetracycline gene expression, an ability to suppress fluorescently labeled oxidized LDL uptake through the hLOX-1 was evaluated.
As the CHO cells which express the hLOX-1 depending on tetracycline concentrations, the cells transfected with the plasmid described below in a known method were used. The transfected plasmid has a system where a hLOX-1 coding region integrated in pcDNA3.1-hLOX1-V5 (Journal of Molecular and Cellular Cardiology 39 (3) 553-561 (2005)) is mounted in a tetracycline response vector and the expression of hLOX-1 can be controlled depending on the concentration of tetracycline or doxycycline.
An assay using the CHO cells was carried out in the following manner. […] Then, the oxidized LDL labeled with 1,1′-dioctadecyl-3,3,3′,3′-tetramethylindocarbocyanine perchlorate (DiI, manufactured by Invitrogen), a carbocyanine fluorescence pigment, was applied to each well so as to be 5 μg/mL, and, under the environment described above, the uptake of the fluorescently labeled oxidized LDL was performed into the CHO cells for 4 hours. […]

SR-AII = target: T2, SR-AII (Homo sapiens, UniProt P21757); test: DiI-OxLDL uptake into cells expressing SR-AII (Example 7); format: cell-based; settings: FIG. 6
T2 construct: expressed in transfected cells; host or cells: COS-1 cells (transient, 48 h), pDEST26
T2 sequence (P21757 1-358 isoform P21757-2): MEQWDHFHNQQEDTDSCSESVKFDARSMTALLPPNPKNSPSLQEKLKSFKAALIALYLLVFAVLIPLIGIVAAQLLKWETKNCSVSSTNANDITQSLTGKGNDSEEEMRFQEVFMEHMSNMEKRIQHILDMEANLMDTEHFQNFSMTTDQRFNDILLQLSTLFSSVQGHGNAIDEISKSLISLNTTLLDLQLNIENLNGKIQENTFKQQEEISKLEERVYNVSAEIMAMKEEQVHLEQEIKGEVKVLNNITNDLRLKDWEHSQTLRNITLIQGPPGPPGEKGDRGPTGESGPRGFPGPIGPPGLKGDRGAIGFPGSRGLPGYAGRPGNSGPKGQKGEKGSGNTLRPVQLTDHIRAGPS
Procedure: As for cDNA cloning of human SR-AII, the full-length sequence (1,077 base pairs) was obtained by PCR using cDNA derived from human normal lien (Invitrogen) as a template. Additionally a CACC sequence was added to 5′-terminal of the upstream primer. The amplified PCR product was inserted to a pENTR/D-TOPO vector (Invitrogen) and transformed into Mach1 cells (Invitrogen). From the obtained transformant, clones supposed to have the plasmid which was correctly inserted with the SR-AII full-length sequence were selected in usual ways such as a colony PCR method, and the plasmid sequence was sequenced. Furthermore, for the plasmid ascertained to have the correct sequence by sequencing, a site-specific recombination reaction to pDEST26 (Invitrogen) as an expression vector for animal cells was carried out according to a manual. The obtained pDEST26 vector having the full-length sequence of […] was transformed into COS-1 cells (Health Science Research Resources Bank), and cultivated for 48 hours to obtain a transient expressed cell line. […] Nystatin (manufactured by Wako) was used as a specific inhibitor of caveola transport.

Compound: C=Cc1c(C)c2cc3nc(c4c5[nH]c(cc6nc(cc1[nH]2)C(C)=C6CC)c(C)c5C(=O)[C@@H]4C(=O)OC)[C@@H](CCC(=O)O)[C@@H]3C [pheophorbide a]
- amount of oxidized LDL uptake into CHO cells expressing hLOX-1 (hLOX-1): stronger uptake inhibition on hLOX-1 than that of the anti-hLOX antibody
- ability to suppress oxidized LDL uptake by SR-A (SR-AII): the ability to suppress the oxidized LDL uptake by SR-A

From US20110009616A1, “AGENT FOR PREVENTING ARTERIOSCLEROSIS” (priority 2006, published 2011)
